Results taken from patent publication US12590099B2, “Inhibitors of histone deacetylase useful for the treatment or prevention of HIV infection” (Merck Sharp & Dohme LLC, priority 2018, dated 2026).

Key:
Format in all cases: biochemical
Recombinant human HDAC2 = biological target: T1, Recombinant human HDAC2 (Homo sapiens, UniProt Q92769); test: Human HDAC enzyme inhibitor Fluor-de-Lys assay, HDAC2
T1 construct: Full length human HDAC2-FLAG was expressed in baculovirus infected Sf9 cells; FLAG (C); made in house; host or cells: Sf9 (baculovirus)
T1 sequence (Q92769 whole entry): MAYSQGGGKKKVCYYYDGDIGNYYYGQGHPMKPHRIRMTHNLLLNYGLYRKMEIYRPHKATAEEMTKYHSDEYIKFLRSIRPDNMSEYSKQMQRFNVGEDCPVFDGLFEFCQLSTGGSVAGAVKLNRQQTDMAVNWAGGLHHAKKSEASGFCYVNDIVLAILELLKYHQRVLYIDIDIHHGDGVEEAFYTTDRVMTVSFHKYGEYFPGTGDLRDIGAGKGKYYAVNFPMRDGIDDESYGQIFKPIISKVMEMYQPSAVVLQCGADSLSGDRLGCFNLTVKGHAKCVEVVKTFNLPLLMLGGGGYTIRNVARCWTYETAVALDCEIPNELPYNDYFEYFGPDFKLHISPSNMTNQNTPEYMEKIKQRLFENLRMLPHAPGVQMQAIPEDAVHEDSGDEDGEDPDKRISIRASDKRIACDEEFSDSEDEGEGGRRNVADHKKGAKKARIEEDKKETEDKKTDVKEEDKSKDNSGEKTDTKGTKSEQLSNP
Experimental: (§1) Human HDAC Enzyme Inhibitor Fluor-De-Lys Assay
(§2) Recombinant human HDAC8 (BML-SE145-0100) and HDAC10 (BML-SE559-0050) enzymes, HDAC substrates BML-KI104 and BML-KI178, and HDAC developer solutions BML-KI105 and BML-KI176 were purchased from Enzo Life Sciences. […] HDAC inhibitor suberoylanilide hydroxamic acid (SAHA) was obtained from Indofine and trichostatin A (TSA) was obtained from Sigma-Aldrich.
(§3) Recombinant human HDAC1, HDAC2, and HDAC3/SMRT heterodimer were prepared by Merck Research Laboratories. […] The eluted protein was then passed over an anti-HDAC1 immunoaffinity column to remove any complexes containing HDAC1. […]
(§4) The histone deacetylase activities of HDAC1, HDAC2, HDAC3, HDAC6, and HDAC8 were measured in modified FLUOR DE LYS assays in 384-well format. In this assay, HDAC enzymes are initially incubated with an ε-acetyl (or -trifluoroacetyl)-L-lysine-containing substrate with a C-terminal amide having aminomethylcoumarin as the amine component. HDACs cleave the ε-acetyl group, rendering the resulting product susceptible to AMC cleavage by trypsin. The released AMC is then detected by its fluorescence.
(§5) The HDAC3/SMRT assay employed buffer B, consisting of 20 mM HEPES, pH 8.0, 1 mM MgCl2, 50 mM NaCl, 2.7 mM KCl, 0.05% BSA, 0.005% Tween 20, and 10 μM IP4. […] The HDAC8 assay employed buffer D, consisting of 20 mM HEPES, pH 8.0, 1 mM MgCl2, 100 mM NaCl, 20 mM KCl, 0.10% n-octyl-β-D-glucoside (Anatrace) and 0.05% BSA. All steps were performed at room temperature (23° C.). The assay was performed by pre-incubating serial dilutions of test compounds with the target HDAC prior to initiation with substrate. Each compound was titrated in a 10-point dose response, using a 1:3 fold dilution scheme, with 0.15 ul of solution added by ECH0555 to the plate, followed by the addition of 20 μl of the appropriate HDAC isoform diluted in appropriate assay buffer. […] Final conditions used for each assay were: 1. HDAC 1, 0.3 nM total enzyme, 20 μM substrate BML-KI104; 2. […] HDAC 3/SMRT, 0.3 nM total enzyme, 20 μM substrate BML-KI104; 4. […] The reactions were stopped and developed by addition of 30 ul of HDAC developer solution containing a saturating level of HDAC inhibitor as follows: 1.

Recombinant human HDAC1 = biological target: T2, Recombinant human HDAC1 (Homo sapiens, UniProt Q13547); test: Human HDAC enzyme inhibitor Fluor-de-Lys assay, HDAC1
T2 construct: FLAG (C); made in house
T2 sequence (Q13547 whole entry): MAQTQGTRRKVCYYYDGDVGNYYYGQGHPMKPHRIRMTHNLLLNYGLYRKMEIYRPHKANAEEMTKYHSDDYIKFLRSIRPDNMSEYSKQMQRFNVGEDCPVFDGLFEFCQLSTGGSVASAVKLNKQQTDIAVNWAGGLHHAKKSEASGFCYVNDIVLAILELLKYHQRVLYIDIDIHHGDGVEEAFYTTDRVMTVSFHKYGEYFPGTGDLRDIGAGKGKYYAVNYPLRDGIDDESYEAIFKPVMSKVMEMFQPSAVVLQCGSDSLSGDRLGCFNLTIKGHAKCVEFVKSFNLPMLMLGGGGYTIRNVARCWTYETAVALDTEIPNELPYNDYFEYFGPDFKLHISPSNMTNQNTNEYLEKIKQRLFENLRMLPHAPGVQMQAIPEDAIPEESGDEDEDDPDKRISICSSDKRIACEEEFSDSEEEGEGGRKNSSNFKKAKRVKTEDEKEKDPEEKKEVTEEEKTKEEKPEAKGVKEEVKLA
Experimental: as §1, §2, §3, §4, §5

Recombinant human HDAC8 = biological target: T3, Recombinant human HDAC8 (Homo sapiens, UniProt Q9BY41); test: Human HDAC enzyme inhibitor Fluor-de-Lys assay, HDAC8
T3 construct: purchased Enzo Life Sciences BML-SE145-0100
T3 sequence (Q9BY41 1-377): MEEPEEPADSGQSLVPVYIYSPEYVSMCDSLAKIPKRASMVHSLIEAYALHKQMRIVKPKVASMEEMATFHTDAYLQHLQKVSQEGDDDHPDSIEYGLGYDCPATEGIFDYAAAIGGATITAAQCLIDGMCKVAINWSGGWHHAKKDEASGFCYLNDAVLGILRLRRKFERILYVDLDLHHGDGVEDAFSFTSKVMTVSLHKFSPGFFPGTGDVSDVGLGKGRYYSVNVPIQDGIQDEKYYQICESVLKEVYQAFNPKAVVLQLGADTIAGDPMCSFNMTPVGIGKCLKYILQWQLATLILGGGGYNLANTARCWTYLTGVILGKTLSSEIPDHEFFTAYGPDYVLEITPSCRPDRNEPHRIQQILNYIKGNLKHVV

HDAC6 = biological target: T4, HDAC6 (Homo sapiens, UniProt Q9UBN7); test: Human HDAC enzyme inhibitor Fluor-de-Lys assay, HDAC6
T4 sequence (Q9UBN7 1-1215): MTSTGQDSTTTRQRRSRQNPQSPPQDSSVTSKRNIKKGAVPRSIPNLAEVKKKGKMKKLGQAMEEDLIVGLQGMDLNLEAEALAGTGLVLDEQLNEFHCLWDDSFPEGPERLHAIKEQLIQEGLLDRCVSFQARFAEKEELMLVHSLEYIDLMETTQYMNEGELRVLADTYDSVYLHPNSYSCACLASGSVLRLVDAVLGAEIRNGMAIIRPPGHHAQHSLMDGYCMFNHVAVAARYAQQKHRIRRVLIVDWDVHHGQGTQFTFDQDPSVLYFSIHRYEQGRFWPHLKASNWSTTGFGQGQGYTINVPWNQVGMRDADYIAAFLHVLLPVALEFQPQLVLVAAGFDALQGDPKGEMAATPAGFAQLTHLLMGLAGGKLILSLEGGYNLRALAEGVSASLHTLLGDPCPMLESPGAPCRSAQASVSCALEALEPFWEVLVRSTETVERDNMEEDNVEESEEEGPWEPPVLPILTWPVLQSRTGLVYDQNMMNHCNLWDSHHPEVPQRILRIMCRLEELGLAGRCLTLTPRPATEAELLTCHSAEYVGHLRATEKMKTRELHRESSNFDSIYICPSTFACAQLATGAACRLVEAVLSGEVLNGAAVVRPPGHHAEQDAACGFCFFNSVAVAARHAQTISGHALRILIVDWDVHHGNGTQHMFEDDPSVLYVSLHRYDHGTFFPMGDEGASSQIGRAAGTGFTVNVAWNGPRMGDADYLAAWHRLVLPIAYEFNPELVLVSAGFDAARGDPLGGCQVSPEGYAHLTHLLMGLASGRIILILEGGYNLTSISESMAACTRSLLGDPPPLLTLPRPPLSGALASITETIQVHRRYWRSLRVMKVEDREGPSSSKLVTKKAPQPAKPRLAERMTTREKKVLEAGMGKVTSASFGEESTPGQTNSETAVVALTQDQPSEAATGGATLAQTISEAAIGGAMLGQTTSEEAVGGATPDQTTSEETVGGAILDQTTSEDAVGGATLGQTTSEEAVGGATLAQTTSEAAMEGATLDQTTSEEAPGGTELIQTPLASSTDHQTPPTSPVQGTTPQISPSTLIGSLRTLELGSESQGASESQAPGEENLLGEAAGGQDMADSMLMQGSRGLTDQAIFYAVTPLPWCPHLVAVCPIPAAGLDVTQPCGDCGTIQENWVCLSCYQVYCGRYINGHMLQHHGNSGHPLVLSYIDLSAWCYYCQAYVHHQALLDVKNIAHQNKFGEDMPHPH

[1] = biological target: T5, Recombinant human HDAC3/SMRT heterodimer (Homo sapiens, UniProt O15379); test: Human HDAC enzyme inhibitor Fluor-de-Lys assay, HDAC3/SMRT
T5 construct: FLAG (C); made in house
T5 sequence (O15379 whole entry): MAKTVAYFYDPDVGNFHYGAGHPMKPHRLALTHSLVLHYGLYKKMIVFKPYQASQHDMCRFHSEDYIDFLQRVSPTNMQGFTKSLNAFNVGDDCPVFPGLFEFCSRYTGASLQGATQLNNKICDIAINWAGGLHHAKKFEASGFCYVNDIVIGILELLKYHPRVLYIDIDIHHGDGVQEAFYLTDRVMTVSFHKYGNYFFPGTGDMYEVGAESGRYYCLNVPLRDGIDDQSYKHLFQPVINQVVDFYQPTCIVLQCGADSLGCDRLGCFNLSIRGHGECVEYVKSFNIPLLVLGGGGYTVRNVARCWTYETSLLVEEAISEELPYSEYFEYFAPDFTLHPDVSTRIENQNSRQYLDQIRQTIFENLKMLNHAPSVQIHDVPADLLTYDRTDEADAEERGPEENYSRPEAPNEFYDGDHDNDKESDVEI
T5 sequence (Q9Y618 1-899 partner limits assumed): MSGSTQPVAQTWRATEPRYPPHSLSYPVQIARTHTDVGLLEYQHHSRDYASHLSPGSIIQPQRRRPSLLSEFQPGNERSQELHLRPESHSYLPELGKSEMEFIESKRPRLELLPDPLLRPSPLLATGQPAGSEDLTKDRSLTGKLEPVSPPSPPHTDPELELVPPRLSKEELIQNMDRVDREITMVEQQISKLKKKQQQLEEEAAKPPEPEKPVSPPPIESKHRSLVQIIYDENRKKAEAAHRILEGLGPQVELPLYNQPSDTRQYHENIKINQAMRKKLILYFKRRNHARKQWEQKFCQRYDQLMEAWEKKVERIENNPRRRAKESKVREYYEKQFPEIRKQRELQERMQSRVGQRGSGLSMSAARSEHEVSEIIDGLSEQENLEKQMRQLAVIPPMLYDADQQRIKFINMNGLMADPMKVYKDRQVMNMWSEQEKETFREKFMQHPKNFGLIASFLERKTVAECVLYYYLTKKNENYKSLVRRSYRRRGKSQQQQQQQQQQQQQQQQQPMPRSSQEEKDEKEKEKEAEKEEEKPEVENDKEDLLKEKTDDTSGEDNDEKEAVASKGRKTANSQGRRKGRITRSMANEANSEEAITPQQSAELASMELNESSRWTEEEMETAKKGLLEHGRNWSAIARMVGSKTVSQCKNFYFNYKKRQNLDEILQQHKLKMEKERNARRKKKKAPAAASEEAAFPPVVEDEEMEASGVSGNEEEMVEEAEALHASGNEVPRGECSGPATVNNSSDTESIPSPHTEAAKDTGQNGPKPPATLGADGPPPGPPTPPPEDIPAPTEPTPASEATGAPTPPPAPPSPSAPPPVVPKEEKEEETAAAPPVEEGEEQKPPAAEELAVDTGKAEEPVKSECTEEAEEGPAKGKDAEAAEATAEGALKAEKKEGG

Row | Structure (SMILES) | IC50 (Recombinant human HDAC2) [nM] | IC50 (Recombinant human HDAC1) [nM] | IC50 (Recombinant human HDAC8) [nM] | IC50 (HDAC6) [nM] | IC50 [1] [nM]
1 | CCC(=O)CCCCC[C@H](NC(=O)[C@H]1CC12CCN(C)CC2)c1nc(F)c(-c2cc3ccccc3nc2OC)[nH]1 [Compound 75] | 101 | 29.3 | 27300 | > 45000 | 2.59
2 | CCC(=O)CCCCC[C@H](NC(=O)[C@H]1CC12CCN(C)CC2)c1[nH]c(-c2ccc(F)cc2)nc1C#N [Compound 76] | 19.7 | 3.85 | 16800 | 26600 | 2.88
3 | CCC(=O)CCCCC[C@H](NC(=O)[C@H]1CC12CCN(CC)CC2)c1ncc(-c2ccc3nc(C4CC4)ccc3c2)[nH]1 [Compound 101] | < 1.5 | < 1.5 | 6650 | 7370 | < 1.5
4 | CCC(=O)CCCCC[C@H](NC(=O)[C@H]1CC12CCN(CC1CC1)CC2)c1ncc(-c2ccc3nc(C4CC4)ccc3c2)[nH]1 [Compound 104] | < 1.5 | < 1.5 | 5020 | 5300 | < 1.5
5 | CCC(=O)CCCCC[C@H](NC(=O)C1=NOC2(CCN(C(C)C)CC2)C1)c1ncc(-c2cc3ccccc3nc2OC)[nH]1 [Compound 106, N-{(1S)-1-[5-(2-methoxyquinolin-3-yl)-1H-imidazol-2-yl]-7-oxononyl}-8-(1-methylethyl)-1-oxa-2,8-diazaspiro[4.5]dec-2-ene-3-carboxamide] | 7.9 | 1.73 | 2780 | 1460 | < 1.5
6 | CCC(=O)CCCCC[C@H](NC(=O)[C@H]1CC12CCN(C)CC2)c1ncc(-c2ccc3c(ccc(=O)n3C)c2)o1 [Compound 109] | 9.4 | 3.52 | > 15000 | 13400 | 2.98
7 | CCC(=O)CCCCC[C@H](NC(=O)[C@H]1CC12CCN(C)CC2)c1ncc(-c2ccc3cnc(OC)cc3c2)[nH]1 [Compound 113] | 6.6 | 1.37 | 2180 | > 4500 | 1.42
8 | CCC(=O)CCCCC[C@H](NC(=O)[C@H]1CC12CCN(CC)CC2)c1ncc(-c2ccc3nc(C4CC4)ccc3c2)o1 [Compound 114] | 4.7 | 1.12 | 27000 | 4090 | 1.04
9 | CCC(=O)CCCCC[C@H](NC(=O)[C@H]1CC12CCN(CC1CC1)CC2)c1ncc(-c2ccc3nc(C4CC4)ccc3c2)o1 [Compound 115] | 2 | < 1.5 | 15400 | 4290 | < 1.5
10 | CCC(=O)CCCCC[C@H](NC(=O)[C@H]1CC12CCN(C(C)C)CC2)c1ncc(-c2ccc3nc(C4CC4)ccc3c2)o1 [Compound 116] | 15.7 | 4.37 | > 15000 | 4730 | 3.88
11 | CCC(=O)CCCCC[C@H](NC(=O)[C@H]1CC12CCN(C)CC2)c1ncc(-c2ccc3nc(C4CC4)ccc3c2)o1 [Compound 121] | 4.4 | 1.39 | 15300 | 4810 | 1.16
12 | CCC(=O)CCCCC[C@H](NC(=O)[C@H]1CC[C@]2(CC1)OC(=O)c1ncccc12)c1ncc(-c2ccc3nc(C4CC4)ccc3c2)o1 [Compound 122] | 157 | 56.7 | 29300 | > 45000 | 20.5
13 | CCC(=O)CCCCC[C@H](NC(=O)[C@H]1CC[C@]2(CC1)OC(=O)c1cccnc12)c1ncc(-c2ccc3nc(C4CC4)ccc3c2)o1 [Compound 123] | 94.6 | 34.8 | > 15000 | > 15000 | 7.59
14 | CCC(=O)CCCCC[C@H](NC(=O)[C@H]1CC12CCN(CC)CC2)c1ncc(-c2ccc3c(=O)n(C(C)C)ccc3c2)[nH]1 [Compound 126] | 1.3 | 0.19 | 6480 | 18100 | 0.19
